Holding throughout (experiment): NCI tumour cell line growth inhibition, 48 h
Assay [1] concerns 786-0.
Assay [2] has as its system A549.
Assay [3] deals with ACHN.
Assay [4] relates to BT-549.
The subject of assay [5] is HCC 2998.
Assay [6] concerns HCT-116.
The test system of assay [7] is HOP-62.
Assay [8] concerns M14.
Assay [9] deals with MDA-MB-435.
Assay [10] has as its system NCI-H23.
The subject of assay [11] is NCI-H522.
Assay [12] relates to OVCAR-4.
Assay [13] concerns OVCAR-5.
Assay [14] relates to PC-3.
The test system of assay [15] is RPMI-8226.
Assay [16] deals with SK-MEL-5.
Assay [17] concerns SR.
Assay [18] concerns SW-620.
The subject of assay [19] is UACC-62.
Assay [20] deals with SK-OV-3.

The results in this text go back to ChEMBL document CHEMBL1201862, “PubChem BioAssay data set” (2004).

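Grown in 96-well plates, cells were treated for 48 hours with each compound at five concentrations. Insufficient inhibition: endpoint recorded as highest concentration tested. Abbreviation: GI50, concentration required for 50% inhibition of growth.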 Active and inactive are the calls of the source. Cut-off read from the data, not from the text of the source: active = GI50 up to about 1.1 µM and inactive = higher.

Take `ClCc1nc2ccccc2[nH]1`: the GI50 in [1] was > 100 µM (inactive); in [2] it was > 100 µM (inactive); in assay [3], 85.1 µM (inactive); in assay [4] it was 42.8 µM (inactive); in [5] it was > 100 µM (inactive); in assay [6], > 100 µM (inactive). Also, the GI50 in assay [7], in [8], in assay [9], in assay [10], in assay [11] and in assay [12] was > 100 µM (inactive) each time. In addition, the GI50 in [13] is > 100 µM (inactive); in assay [14] it was > 100 µM (inactive); in assay [15], > 100 µM (inactive); in [16] it was > 100 µM (inactive); in assay [17], 56 µM (inactive); in assay [18], > 100 µM (inactive). Further, the GI50 in [19] was > 100 µM (inactive).

Regarding `CC12CCC(/C(=N/c3cc(C(F)(F)F)cc(C(F)(F)F)c3)C1=O)C2(C)C` (centres undefined), the GI50 was 35.5 µM (inactive) in assay [1]; 31.9 µM (inactive) in assay [2]; > 100 µM (inactive) in assay [3]; 32.5 µM (inactive) in assay [4]; 26.3 µM (inactive) in assay [5]; 27.7 µM (inactive) in [6]. Besides, the GI50 in assay [7] was 39.8 µM (inactive); in assay [8], 30.6 µM (inactive); in [9], 38.3 µM (inactive); in assay [10], 25.7 µM (inactive); in [12], 44 µM (inactive); in [13] it was 56.4 µM (inactive). The GI50 in assay [14] is 27.5 µM (inactive); in assay [15], 17.8 µM (inactive); in assay [16], 48.2 µM (inactive); in assay [20], > 100 µM (inactive); in assay [17], 18.8 µM (inactive); in assay [18] it was 28.1 µM (inactive). The GI50 in assay [19] was 31.3 µM (inactive).

As to `C=CC1(CC/C(=C\[N+](=O)[O-])c2ccc(OC)c(OC)c2)OCC(C)(C)CO1`, the GI50 in assay [1] was 17.1 µM (inactive); in assay [2], 23.3 µM (inactive); in assay [3], 17.8 µM (inactive); in assay [4], 13.8 µM (inactive); in assay [5] it was 24.5 µM (inactive); in assay [6], 18.9 µM (inactive). The GI50 in assay [7] was 18.3 µM (inactive); in [8], 17.8 µM (inactive); in [9], 19.7 µM (inactive); in assay [10], 14.1 µM (inactive); in [11], 13.8 µM (inactive); in assay [12], 11.6 µM (inactive). In addition, the GI50 in [13] is 16.1 µM (inactive); in assay [14], 25.6 µM (inactive); in assay [16], 13.1 µM (inactive); in assay [20] it was 22.4 µM (inactive); in [17] it was 3.61 µM (inactive); in [18], 26.9 µM (inactive). The GI50 in assay [19] is 13.2 µM (inactive).

In the case of `O=C1/C(=C/c2ccccc2)CCc2ccccc21`, the GI50 in [1] is 17.5 µM (inactive); in assay [2] it was 22.7 µM (inactive); in [3], 17.2 µM (inactive); in assay [4], 16.2 µM (inactive); in assay [5] it was 16.3 µM (inactive); in [6], 15.1 µM (inactive). Also, the GI50 in [7] was 15.7 µM (inactive); in [8], 20.1 µM (inactive); in [9] it was 14.8 µM (inactive); in [10], 19.6 µM (inactive); in assay [12] it was 14.8 µM (inactive); in assay [13] it was 16.8 µM (inactive). For the same compound, the GI50 in assay [14] is 19 µM (inactive); in assay [15] it was 3.11 µM (inactive); in [16] it was 17.7 µM (inactive); in assay [20], 25.6 µM (inactive); in [17] it was 9.71 µM (inactive); in [18] it was 13.9 µM (inactive). For the same compound, in assay [19], the GI50 was 17.9 µM (inactive).

With `CN(CCNC(=O)c1cc(-c2ccccc2)nc2ccccc12)CCNC(=O)c1cc(-c2ccccc2)nc2ccccc12`, the GI50 in assay [1] was 5.96 µM (inactive); in assay [2], > 100 µM (inactive); in assay [3], > 47 µM (inactive); in assay [4] it was > 100 µM (inactive); in assay [5] it was 2.43 µM (inactive); in [6] it was 8.05 µM (inactive). The GI50 was 26.1 µM (inactive) in [7]; 2.17 µM (inactive) in assay [8]; 6.92 µM (inactive) in assay [9]; > 45.4 µM (inactive) in assay [10]; 14.3 µM (inactive) in assay [11]; 8.55 µM (inactive) in assay [13]. Moreover, the GI50 in assay [14] is 10.3 µM (inactive); in assay [15] it was 4.99 µM (inactive); in assay [16], 2.31 µM (inactive); in [20], > 100 µM (inactive); in assay [17], 2.98 µM (inactive); in [18], 6.12 µM (inactive). Also, the GI50 in [19] was 12.9 µM (inactive).

For `Cc1ccc2nc(-c3ccc(N)c(I)c3)sc2c1`, the GI50 is 15.8 µM (inactive) in [1]; 15.2 µM (inactive) in assay [2]; 20.8 µM (inactive) in assay [3]; 97.7 µM (inactive) in [4]; 6.75 µM (inactive) in [5]; 54.6 µM (inactive) in assay [6]. For the same compound, the GI50 in [7] was 28.8 µM (inactive); in assay [8], 37.1 µM (inactive); in [9], 19.2 µM (inactive); in assay [11], 18 µM (inactive); in [12], 2.09 µM (inactive); in [13] it was 35.9 µM (inactive). Further, the GI50 in assay [14] is 8.49 µM (inactive); in assay [16], 29.4 µM (inactive); in [20], 38.2 µM (inactive); in assay [17], 4.2 µM (inactive); in assay [18], 20.9 µM (inactive); in [19], 32.5 µM (inactive).

As for `Clc1nc(Cl)c(Cl)c(-c2ccccc2)n1`, the GI50 in assay [1] is 2.21 µM (inactive); in assay [2], 13.8 µM (inactive); in assay [3], 17.4 µM (inactive); in assay [4], 2.41 µM (inactive); in assay [5], 22.2 µM (inactive); in assay [7] it was 4.03 µM (inactive). Further, the GI50 is 1.77 µM (inactive) in assay [8]; 14.6 µM (inactive) in [9]; 15.8 µM (inactive) in assay [10]; 1.67 µM (inactive) in [11]; 4.85 µM (inactive) in assay [12]; 20.3 µM (inactive) in assay [13]. Besides, the GI50 in assay [14] was 10.5 µM (inactive); in [15], 5.24 µM (inactive); in assay [16] it was 2.43 µM (inactive); in assay [20] it was 13.1 µM (inactive); in [17], 0.322 µM (active); in [18], 1.94 µM (inactive).

Regarding `CC(O[Si](C)(C)C(C)(C)C)[C@H](NC(=O)OCC(Cl)(Cl)Cl)C(=O)O` (some centres undefined), the GI50 is > 100 µM (inactive) in assay [1]; > 100 µM (inactive) in [2]; 55.1 µM (inactive) in assay [3]; > 100 µM (inactive) in assay [4]; > 100 µM (inactive) in assay [5]; > 100 µM (inactive) in [6]. Also, the GI50 in assay [7] was > 100 µM (inactive); in assay [9], > 100 µM (inactive); in assay [10], 95.3 µM (inactive); in assay [11] it was 78 µM (inactive); in assay [12] it was > 100 µM (inactive); in assay [13] it was > 100 µM (inactive). For the same compound, the GI50 is > 100 µM (inactive) in [14]; 84.7 µM (inactive) in assay [15]; > 100 µM (inactive) in assay [16]; > 100 µM (inactive) in assay [20]; > 100 µM (inactive) in [17]; > 100 µM (inactive) in [18]. Besides, the GI50 in [19] was 53.5 µM (inactive).

Take `CC1(C)Oc2ccc3c(=O)cc(-c4ccccc4)oc3c2C1C(=O)O` (centres undefined): the GI50 in [1], in assay [2], in [4], in assay [5], in [6] and in assay [7] was > 100 µM (inactive) throughout. The GI50 in [8], in assay [9], in [10], in [11], in assay [12] and in assay [13] was > 100 µM (inactive) each time. The GI50 in [14], in assay [16], in assay [20], in assay [17] and in [19] was > 100 µM (inactive) in each case.

Turning to `O=C(O)c1cc2c(cc1CC(Cc1ccccc1)C(=O)O)CCC2` (centres undefined), the GI50 in [1], in assay [2], in [3], in assay [4], in assay [5] and in [6] was > 100 µM (inactive) throughout. The GI50 in assay [7], in [8], in assay [9], in assay [10], in assay [11] and in [12] was > 100 µM (inactive) in each case. Further, the GI50 in assay [13], in assay [14], in [15], in assay [16], in assay [20] and in assay [17] was > 100 µM (inactive) each time. The GI50 in [18] was > 100 µM (inactive).

For `FC(F)(F)c1ccc2c(c1)nc(-c1ccccc1)n2CC1CCCN2CCCCC12` (centres undefined), the GI50 was 15.7 µM (inactive) in [1]; 24.9 µM (inactive) in assay [2]; 19.9 µM (inactive) in assay [3]; 16.7 µM (inactive) in assay [4]; 16 µM (inactive) in [5]; 16.4 µM (inactive) in assay [6]. Besides, the GI50 was 27.5 µM (inactive) in assay [7]; 17.1 µM (inactive) in [8]; 18.3 µM (inactive) in [9]; 14.2 µM (inactive) in [11]; 34.8 µM (inactive) in assay [12]; 15.3 µM (inactive) in assay [14]. The GI50 in assay [15] was 32 µM (inactive); in assay [16], 14.9 µM (inactive); in assay [20], 16.9 µM (inactive); in [17], 17.6 µM (inactive); in [18] it was 28.1 µM (inactive); in assay [19], 16.6 µM (inactive).
